Structures are written as SMILES.

For test [1], the system named is male Japanese white rabbits. Description: Inhibition of formation of atherosclerosis in rabbits on high-fat diet (percentage of aortic plaque area). It counts as in vivo. The settings on record: high-fat diet 6 weeks, oils 1.5 g/kg/d, simvastatin 2.0 mg/kg/d, PC group 42.6±9.7%.
Description: High fat fortified feed: Each rabbit is fed with 0.5 grams of cholesterol, 2.0 grams of lard, and 20 grams of egg yolk daily.
Feed for 6 weeks according to the above grouping and feeding conditions, and then execute the animals. After the animals are killed, the aorta is removed from the aortic valve orifice to the beginning of the common iliac artery, the aortic wall is cut longitudinally along the midline of the abdomen, fixed with 10% formaldehyde solution, and the distribution map of aortic lesions is drawn according to the aorta. The area of atherosclerotic plaque and the total area of aortic expansion are measured, and the percentage of plaque area is calculated.
For test [2], the system named is male Japanese white rabbits. Description: Reversing and ablating atherosclerosis in rabbits with established atherosclerosis model (percentage of aortic plaque area). The settings on record: 6 weeks modelling then 3 months treatment, oils 1.5 g/kg/d, simvastatin 2.0 mg/kg/d, MOD 45.8±9.9%, MBF 59.9±8.9%. The format is in vivo.
Description: Forty-eight 4-month-old male Japanese white rabbits weighing 2.0±0.2 kg were selected and randomly divided into 2 groups, as follows: • Normal diet group (Negative control group, NC): 8 male Japanese white rabbits, fed with basic feed; • Atherosclerosis modeling group (MOD): 40 male Japanese white rabbits, fed with high fat fortified basic diet, and the dose of peanut oil was 1.5 g/kg/d (converted based on adult and animal weight, body surface area and Km factor);
The area of atherosclerotic plaque and the total area of aortic expansion is measured, and the percentage of plaque area is calculated.
Three months later, all animals are euthanized.
After the animals are killed, the aorta is removed from the aortic valve orifice to the beginning of the common iliac artery, the aortic wall is cut longitudinally along the midline of the abdomen, fixed with 10% formaldehyde solution, and the distribution map of aortic lesions is drawn according to the aorta. The area of atherosclerotic plaque and the total area of aortic expansion is measured, and the percentage of plaque area is calculated.

For `CCC(C)(C)C(=O)O[C@H]1C[C@@H](C)C=C2C=C[C@H](C)[C@H](CC[C@@H]3C[C@@H](O)CC(=O)O3)[C@H]21` [simvastatin], the “Plaque area (percentage of atherosclerotic plaque in aortic area)” value was 20.2±4.2% in test [1] and 47.1±8.3% in test [2].
